Consider three compounds from patent US12616700B2, “Therapeutic regimen” (Novartis AG, priority 2017, dated 2026).

Data set [1] relates to P. falciparum. Particulars: in vitro; cited from earlier work.
Data set [2] relates to liver hypnozoites. Particulars: cited from earlier work.
Data set [3] concerns P. vivax or P. falciparum. Particulars: cited from earlier work.
Data set [4] in a line: Dog study of lumefantrine-SDF and KAF156 alone and co-dosed (Example 6). Format: in vivo. As to conditions: for Cmax / AUC(0-inf) / AUC(0-t) / half-life / Tmax: po, 100 mg; for AUC(0-inf): read-out: AUCinf, Mean; for AUC(0-t): read-out: AUClast, Mean; for half-life: read-out: T½, Mean (converted). On the procedure:
The study design is described in the table below. To stimulate gastric secretion, each animal (dog) received a single 6-μg/kg intramuscular injection of pentagastrin approximatively 60 minutes prior to test article administration. Washout between each treatment was approximatively 7-8 days. [table]

The test system of data set [5] is Plasmodium. As to conditions: causal prophylactic protection in animal infection models; cited from earlier work.
Data set [6] relates to P. vivax. Particulars: in vitro; cited from earlier work.
The subject of data set [7] is drug-sensitive and a broad panel of drug resistant malaria strains. As to conditions: cited from earlier work.
Data set [8] is classed as in vitro ADME. How it is done:
Lumefantrine concentration was determined by a validated Liquid chromatography-Mass spectrometry (LC-MS/MS) method with a Lower Limit of Quantification (LLOQ) of 50 ng/mL. Briefly, the bioanalytical method consisted of protein precipitation followed by solid phase extraction of human plasma samples and analysis of diluted samples by LC-MS/MS in Multiple Reaction Monitoring (MRM) positive mode using Electrospray Ionization (ESI) as the ionization technique. The lower and upper limits of quantification for linear range were 50.0 ng/mL and 20000 ng/mL respectively using […] of human plasma. Lumefantrine in human plasma is stable for 44 hours at room temperature; 9 months at ≤−70° C.; 3 freeze/thaw cycles at ≤−70° C. The extract is stable for 100 hours in an autosampler at 8° C. The stability data could cover the period from sampling to analysis of all study samples. For eight points calibration concentrations (50, 100, 200, 500, 2000, 5000, 16000 and 20000 ng/mL) bias was within the range of 15.0% at all concentrations except for LLOQ (50 ng/mL) for which it was within the range of 20.0%. For quality control samples (150 ng/mL, 2500 ng/mL and 15000 ng/mL) bias was within the range of 15.0% for at least ⅔ of the individual values.

For data set [9] the following is noted: cited from earlier work.
Where [10] appears, read: P. falciparum malaria, multiple-dose cohort.
Setting [11] is: Dog 3 (emesis after dosing in Phase 5).
The mark [12] stands for this setting: dog, in vivo, Phase 2 (Combo), dog.
Where [13] appears, read: dog, in vivo, Phase 5 (Mono), dog.

Read-outs that look alike come from different tables or passages of the source.

As for `CC1(C)c2nc(-c3ccc(F)cc3)c(Nc3ccc(F)cc3)n2CCN1C(=O)CN` [KAF156, 2-amino-1-(2-(4-fluorophenyl)-3-(4-fluorophenylamino)-8,8-dimethyl-5,6-dihydroimidazo[1,2-a]pyrazin-7(8H)-yl)ethanone], the “EC50, erythrocytic replication life cycle stages (blood stages)” value in data set [1] and in data set [6] was “low nanomolar” in each case. Also, the “activity against liver hypnozoites” value in data set [2] is listed as “has not demonstrated activity”. Moreover, the serious adverse events entry in [3] (400 mg/day for 3 days or single 800 mg) is reported as “No serious adverse event was reported”. In addition, the “patients who reported nausea” value was 1 patient in data set [3] (setting [10]) and “Four” in data set [3] (single 800-mg dose). Moreover, the patients who vomited in data set [3] (setting [10]) is reported as 1 patient; in data set [3] (single 800-mg dose, besides one withdrawn for repeated vomiting), “Five”. The “activity against vivax and falciparum malaria, including artemisinin-resistant parasites” value in data set [3] (malaria patients) is given as “has activity”. Moreover, the half-life entry is “about 50 hours” in data set [3] (malaria patients); 31 h in [4] (dog, in vivo, Phase 2 (Combo), with Lumefantrine-SDF sachet, dog); 33.2 h in data set [4] (setting [13]). Also, the “AUCinf Ratio (Phase 2:Phase 5)” value in [4] (Dog 1) turned out to be 2.6; in data set [4] (Dog 2), 2.8; in data set [4] (setting [11]), 5.3; in data set [4] (Mean), 3.6. The “AUClast Ratio (Phase 2:Phase 5)” value was found to be 2.7 in [4] (Dog 1), 2.9 in data set [4] (Dog 2), 5.2 in data set [4] (setting [11]) and 3.6 in data set [4] (Mean). The “Cmax Ratio (Phase 2:Phase 5)” value in data set [4] (Dog 1) worked out at 2.6; in data set [4] (Dog 2), 2.5; in data set [4] (setting [11]), 3.3; in data set [4] (Mean) it was 2.8. For the same compound, the Cmax in data set [4] (dog, in vivo, Phase 2 (Combo)) was found to be 1200 ng/mL; in data set [4] (dog, in vivo, Phase 5 (Mono)), 451 ng/mL. Moreover, the AUC(0-inf) was determined as 45400 ng·h/mL in [4] (setting [12]) and 14400 ng·h/mL in data set [4] (setting [13]). The figures for the AUC(0-t) in data set [4] (setting [12]) and in data set [4] (setting [13]) were 36700 ng·h/mL and 11600 ng·h/mL, respectively. Moreover, the time of peak concentration (Tmax) came to 3.3 h in [4] (dog, in vivo, Phase 2 (Combo), Tmax 1, 1, 8 hr in 3 dogs) and 1 h in data set [4] (dog, in vivo, Phase 5 (Mono)). Also, the “activity in liver stage models of Plasmodium infection” value in data set [5] is “has shown activity”. Besides, in data set [7], the “potency against drug-sensitive versus drug resistant malaria strains” value is “equally potent”.
On to `CCCCN(CCCC)CC(O)c1cc(Cl)cc2c1-c1ccc(Cl)cc1/C2=C/c1ccc(Cl)cc1` (stereo not drawn) [Lumefantrine, lumefantrine], for which the “increase of lumefantrine exposure when administered together with KAF156” value in data set [4] (dog, in vivo) is recorded as “around 1.5 fold”. For the same compound, the “stability of the extract” value in data set [8] (human, 100 hours) came out at 100 h. Also, in data set [8] (plasma, 44 hours), the “stability in human plasma” value is 44 h. Further, the “increase of bioavailability by food” value in data set [9] (in vivo) was “up to 16 fold”.
Consider `CO[C@H]1O[C@@H]2O[C@@]3(C)CC[C@H]4[C@H](C)CC[C@@H]([C@H]1C)[C@@]24OO3` [artemether], for which, in data set [9] (Coartem administered with high fat food), the “increase of bioavailability by food” value is “up to 3 fold”.

A word on the Cmax: it is the peak of the concentration-time curve. Broadly, the Tmax is the time at which the peak concentration occurs.
